US20050107306A1, “Treatment of respiratory disease associated with matrix metalloproteases by inhalation of synthetic matrix metalloprotease inhibitors” (priority 2003, published 2005)

Columns and labels:
MMP-2 (gelatinase A) = target: T1, MMP-2 (gelatinase A) (Homo sapiens, UniProt P08253); details: read-out: MMP-2 (gelatinase A) Kl; cited from earlier work
T1 sequence (P08253 110-660): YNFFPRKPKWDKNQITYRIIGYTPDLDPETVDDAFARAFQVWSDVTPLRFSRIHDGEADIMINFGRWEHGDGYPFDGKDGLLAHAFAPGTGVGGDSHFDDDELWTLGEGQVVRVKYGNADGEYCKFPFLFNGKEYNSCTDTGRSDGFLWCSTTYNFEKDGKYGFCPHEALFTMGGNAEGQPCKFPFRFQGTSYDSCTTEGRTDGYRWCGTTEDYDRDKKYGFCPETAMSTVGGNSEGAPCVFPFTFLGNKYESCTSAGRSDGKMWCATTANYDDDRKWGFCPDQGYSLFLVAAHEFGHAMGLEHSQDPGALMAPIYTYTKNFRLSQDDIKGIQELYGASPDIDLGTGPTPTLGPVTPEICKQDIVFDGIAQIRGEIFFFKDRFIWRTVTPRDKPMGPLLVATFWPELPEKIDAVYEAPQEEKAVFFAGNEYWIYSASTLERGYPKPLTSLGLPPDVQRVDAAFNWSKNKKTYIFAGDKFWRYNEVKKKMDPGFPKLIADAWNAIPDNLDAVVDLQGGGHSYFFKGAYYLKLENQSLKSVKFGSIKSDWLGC

MMP-9 (gelatinase B) = MMP-9 (gelatinase B) (Homo sapiens, UniProt P14780); details: read-out: MMP-9 (gelatinase B) Kl; cited from earlier work
MMP-9 (gelatinase B), sequence (P14780 94-707, species assumed): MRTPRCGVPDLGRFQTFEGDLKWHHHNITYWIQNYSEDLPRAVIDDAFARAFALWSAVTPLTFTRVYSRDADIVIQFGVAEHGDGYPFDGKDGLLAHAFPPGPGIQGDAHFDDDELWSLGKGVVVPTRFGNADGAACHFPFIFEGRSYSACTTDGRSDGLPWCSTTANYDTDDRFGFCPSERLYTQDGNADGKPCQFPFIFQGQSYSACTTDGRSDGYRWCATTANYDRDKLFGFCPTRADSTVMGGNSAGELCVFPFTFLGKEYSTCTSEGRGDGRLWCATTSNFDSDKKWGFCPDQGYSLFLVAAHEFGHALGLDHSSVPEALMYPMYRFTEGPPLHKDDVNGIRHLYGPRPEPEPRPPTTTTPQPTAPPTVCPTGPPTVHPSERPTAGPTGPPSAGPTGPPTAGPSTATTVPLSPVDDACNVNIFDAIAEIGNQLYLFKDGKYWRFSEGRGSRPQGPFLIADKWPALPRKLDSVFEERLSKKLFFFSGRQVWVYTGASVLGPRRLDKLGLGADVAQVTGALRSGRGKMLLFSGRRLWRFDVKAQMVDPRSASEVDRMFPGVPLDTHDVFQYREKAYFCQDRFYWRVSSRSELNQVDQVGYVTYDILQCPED

MMP-7 = target: T2, MMP-7 (Homo sapiens, UniProt P09237); details: read-out: MMP-7 Kl; cited from earlier work
T2 sequence (P09237 95-267): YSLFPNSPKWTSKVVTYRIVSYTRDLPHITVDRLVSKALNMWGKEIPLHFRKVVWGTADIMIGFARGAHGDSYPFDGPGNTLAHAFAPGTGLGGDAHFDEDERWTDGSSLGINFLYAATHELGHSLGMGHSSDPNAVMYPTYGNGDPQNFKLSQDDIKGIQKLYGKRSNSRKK

MMP-1 (collagenase-1) = target: T3, MMP-1 (collagenase-1) (Homo sapiens, UniProt P03956); details: read-out: MMP-1 (collagenase-1) Kl; cited from earlier work
T3 sequence (P03956 100-469): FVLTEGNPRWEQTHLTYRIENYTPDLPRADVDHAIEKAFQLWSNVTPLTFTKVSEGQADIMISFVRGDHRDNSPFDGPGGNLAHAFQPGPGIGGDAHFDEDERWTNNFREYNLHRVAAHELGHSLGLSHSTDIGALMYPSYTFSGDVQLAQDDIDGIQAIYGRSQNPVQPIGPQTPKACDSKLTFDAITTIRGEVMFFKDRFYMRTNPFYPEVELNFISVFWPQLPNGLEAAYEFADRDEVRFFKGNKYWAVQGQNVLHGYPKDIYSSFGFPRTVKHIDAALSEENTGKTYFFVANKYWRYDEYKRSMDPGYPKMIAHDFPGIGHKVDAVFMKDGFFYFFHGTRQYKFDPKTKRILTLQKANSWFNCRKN

MMP-3 (stromelysin) = MMP-3 (stromelysin) (Homo sapiens, UniProt P08254); details: read-out: MMP-3 (stromelysin) Kl; cited from earlier work
MMP-3 (stromelysin), sequence (P08254 100-477, species assumed): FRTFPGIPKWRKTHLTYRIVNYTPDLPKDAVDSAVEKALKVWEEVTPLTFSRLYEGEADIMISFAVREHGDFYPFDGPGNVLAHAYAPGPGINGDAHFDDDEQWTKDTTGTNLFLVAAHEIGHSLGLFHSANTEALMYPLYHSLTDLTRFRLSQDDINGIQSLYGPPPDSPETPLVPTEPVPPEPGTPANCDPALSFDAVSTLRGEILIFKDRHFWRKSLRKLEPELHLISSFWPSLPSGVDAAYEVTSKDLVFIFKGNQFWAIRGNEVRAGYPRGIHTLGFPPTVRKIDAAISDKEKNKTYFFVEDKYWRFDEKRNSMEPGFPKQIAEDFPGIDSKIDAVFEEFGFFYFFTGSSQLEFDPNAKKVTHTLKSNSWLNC

sheep model for asthma = experiment: Sheep model for asthma: carbachol challenge, DRC/PC 400%; assay type: in vivo; details: 30 μg dose, 24 hours after administration
Experimental: Phosphate buffered saline (PBS) (control) • 2. […] Results:
DRC/PC %400 refers to the amount of carbochol required to induce a 400% change in airway hyperresponsiveness. The amount required is measured as carbachol breath units (BU); the aerosol concentration of carbachol is fixed and the animal continues to inhale until the appropriate response in obtained. Thus, a higher value indicates a protective effect against an asthmatic reaction.

[1] = test system: murine model of cigarette smoke-related emphysema; experiment: Murine model of cigarette smoke-related emphysema: lung morphometry, mean linear intercept (Lm); assay type: in vivo; details: smoking mice
Experimental: Five groups of animals were studied. […] Group 1 animals (32 animals) were control non-smoking animals. Group 2 animals (32 animals) were administered aerosolized PBS (10 ml/5 animals) followed by cigarette smoke. […] All adult mice (12 weeks of age at initiation) were exposed to two cigarettes per day, 6 days/wk for up to 6 months. Within each treatment group there were 3 timepoints for analysis: 1 week, 3 months, and 6 months. […] Delivery proceeded until the nebulizer ran dry (about 30 minutes). […] All were prepared in sterile saline. Vehicle control animals received sterile saline only. In each animal, the right lung was removed and used for fixation/inflation and paraffin embedding to study morphometry, to determine mean linear intercept (Lm), which is the distance between the walls of alveoli, and which increases as proteases (e.g., elastase, metalloproteases) break down pulmonary structure.

[2] = target: MMP-12 (macrophage metalloelastase, ME) (Homo sapiens, UniProt P39900); details: read-out: MMP-12 (macrophage metalloelastase, ME) Kl; cited from earlier work
MMP-12 (macrophage metalloelastase, ME), sequence (P39900 106-470, species assumed): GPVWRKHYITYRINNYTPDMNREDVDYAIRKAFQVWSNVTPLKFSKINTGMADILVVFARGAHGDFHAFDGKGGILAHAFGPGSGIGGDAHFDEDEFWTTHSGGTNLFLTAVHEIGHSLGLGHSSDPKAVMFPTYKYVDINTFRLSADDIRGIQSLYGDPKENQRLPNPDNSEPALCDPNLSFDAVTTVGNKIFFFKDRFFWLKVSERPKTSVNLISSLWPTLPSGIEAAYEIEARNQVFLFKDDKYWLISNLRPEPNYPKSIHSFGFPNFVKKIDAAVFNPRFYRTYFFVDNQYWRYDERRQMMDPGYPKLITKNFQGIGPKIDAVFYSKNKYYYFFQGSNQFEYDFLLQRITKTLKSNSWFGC

[3] = Solubility in liquid formulation; assay type: physicochemical; details: depending on the formulation, read-out: soluble in liquid formulation at levels up to
[4] = test system: murine model of cigarette smoke-related emphysema; experiment: Murine model of cigarette smoke-related emphysema: inflammatory cells in bronchoalveolar lavage (BAL); assay type: in vivo; details: smoking mice
Experimental: Five groups of animals were studied. […] Group 1 animals (32 animals) were control non-smoking animals. Group 2 animals (32 animals) were administered aerosolized PBS (10 ml/5 animals) followed by cigarette smoke. […] All adult mice (12 weeks of age at initiation) were exposed to two cigarettes per day, 6 days/wk for up to 6 months.
Within each treatment group there were 3 timepoints for analysis: 1 week, 3 months, and 6 months. After one week, 3 months, and 6 months on study, 10 animals, 10 animals, and 12 animals respectively, from each group were sacrificed and analytical work on lungs and lung samples was performed (see below).
10 mL of sterile saline or drug was placed in the nebulizer and delivered to each group of five animals. Delivery proceeded until the nebulizer ran dry (about 30 minutes).
All were prepared in sterile saline. Vehicle control animals received sterile saline only.
The left lung was subjected to bronchoalveolar lavage (BAL) to determine levels of the inflammatory cell types macrophages and neutrophils, which were counted by morphology. BAL samples were collected using 0.5 mL rinses of the left lung.

[5] = test system: MMP activity (assay designed primarily to detect MMP-9 activity); experiment: MMP activity of BAL samples from smoking mice treated with nebulized ilomastat; assay type: in vivo; details: for MMP Activity of BAL sample (mAU/min): drug treated (ilomastat 100 ug/mL nebulized daily), individual mouse samples
Experimental: The 2-week study was a repeat of the 1-week study but used 10 animals/group.
At the end of each study, BAL samples were obtained from the lungs of each animal using established procedures and each sample was tested for MMP activity using an assay designed primarily to detect MMP-9 activity.
• 1. 150 μL of MMP Reagent Mix was added to each well. The reagent mix consisted of the appropriate dilutions of previously prepared stock solutions in order to yield the following final concentrations in 200 μL final volume/well: • HEPES stock (50 mM final) • CaCl2 stock (10 mM final) • Ellmans Reagent stock (1.25 mM final) • Substrate (Bachem #H7145) stock (475 μM final) • Q.S. with dH2O • 2. Microtiter plate was placed in the 30° C. incubator for 15 min. • 3. 50 μL/well of each BAL sample was added into the appropriate wells • 4. 50 μL/well of vehicle control buffer was added to blank well. • 5. 48 μL/well of vehicle control buffer and 2 μL of MMP-9 (20 ng, CalBiochem #444231) was added to the control well. • 6. Plate was placed in VersaMax Microtiter Plate Reader which was pre-equilibrated to 30° C. • 7. Abs410 was read every 5-6 min for 3 hrs Results and Conclusions: […]

human MMP-9 = experiment: MMP-9 fluorescent activity assay in induced sputum samples; assay type: biochemical
Experimental: Induced sputum (IS) samples were collected from 22 healthy smokers (HS) and 19 patients with clinical evidence of chronic obstructive pulmonary disease (COPD) (Inclusion criteria: FER<0.7 and FEV1 % Predicted 30-80%). The IS was processed using dithiothreitol as previously described by Pavord et al. (1997) Thorax 52, 498-501. 15 randomly selected IS were used for inhibitor studies (COPD n=7; HS n=8).
MMP-9 activity in IS was measured using a commercially available human MMP-9 fluorescent activity assay (Fluorokine® E, R&D Systems, Europe, UK). Following binding of MMP-9 (92, 82, 62 kDa forms) to an immobilized monoclonal antibody, a fluorogenic substrate linked to a quencher molecule was added. Any active MMP-9 cleaved the peptide linkers between the fluorophore and the quencher molecule allowing measurement of the fluorescence using a fluorimeter (Spectrafluor Plus, Tecan, UK). For inhibitor studies, the IS samples were incubated for 30 minutes at room temperature with the inhibitors prior to addition of the synthetic substrate.

CN1C(=O)N(C[C@@H](C(=O)NO)[C@@H](CC2CCCC2)C(=O)N2CCCCC2)C(=O)C1(C)C [Ro 32-3555]
Ki (MMP-2 (gelatinase A)): 154 nM | Ki (MMP-9 (gelatinase B)): 59 nM

O=C(NO)C1(CS(=O)(=O)c2ccc(Oc3ccc(Cl)cc3)cc2)CCOCC1 [RS-130,830]
Ki (MMP-7): 1200 nM | Ki (MMP-1 (collagenase-1)): 590 nM | Ki (MMP-3 (stromelysin)): 9 nM

CNC(=O)[C@H](Cc1c[nH]c2ccccc12)NC(=O)[C@@H](CC(=O)NO)CC(C)C [ilomastat, N-[2(R)-2(hydroxyamidocarbonylmethyl)-4-methylpentanoyl]-L-tryptophan methylamide]
effect against asthmatic reaction, in words (sheep model for asthma): clear protective effect | % protection (Lm) ([1]; ilomastat dose 1 (100 ug/mL)): 83% | Lm vs. non-smokers (%) ([1]; ilomastat dose 1 (100 ug/mL)): 2.6% | % protection (Lm) ([1]; ilomastat dose 2 (50 ug/ml)): 96% | Lm vs. non-smokers (%) ([1]; ilomastat dose 2 (50 ug/ml)): 0.6% | % protection (Lm) ([1]; ilomastat dose 3 (10 ug/ml)): 42% | Lm vs. non-smokers (%) ([1]; ilomastat dose 3 (10 ug/ml)): 8.7% | Ki (MMP-3 (stromelysin)): 26 to 27 nM | Ki [2]: 0.2 to 0.4 nM | solubility [3]: ≤ 15 mg/mL | Macrophages, cells per ml of BAL fluid ([4]; ilomastat dose 1 (100 ug/mL)): 1000 cells per ml | Neutrophils, cells per ml of BAL fluid ([4]; ilomastat dose 1 (100 ug/mL)): 100 cells per ml | Macrophages, cells per ml of BAL fluid ([4]; ilomastat dose 2 (50 ug/ml)): 1500 cells per ml | Neutrophils, cells per ml of BAL fluid ([4]; ilomastat dose 2 (50 ug/ml)): 220 cells per ml | Macrophages, cells per ml of BAL fluid ([4]; ilomastat dose 3 (10 ug/ml)): 2500 cells per ml | Neutrophils, cells per ml of BAL fluid ([4]; ilomastat dose 3 (10 ug/ml)): 50 cells per ml | MMP activity of BAL samples, in words ([5]; 1-week study, all five treated mouse samples): no detectable MMP activity | MMP activity of BAL samples, in words ([5]; 2-week study, all ten treated mouse samples): no detectable MMP activity | MMP Activity of BAL sample (mAU/min) ([5]; 2 week study): 0 mAU/min | MMP Activity of BAL sample (mAU/min) ([5]; Pilot study (1 week)): 0 mAU/min | inhibitory effect on MMP-9 activity in induced sputum (human MMP-9; 30 uM, IS from COPD patients, p=0.249 (ns)): 9.2+/−7.2% | inhibitory effect on MMP-9 activity in induced sputum (human MMP-9; 30 uM, IS from healthy smokers (HS), p=0.015): 22.6+/−6.7% | inhibitory effect on MMP-9 activity in induced sputum (human MMP-9; 100 uM, IS from COPD patients, p=0.004): 42.5+/−9.3% | inhibitory effect on MMP-9 activity in induced sputum (human MMP-9; 100 uM, IS from healthy smokers (HS), p=0.008): 39.4+/−6.3%
